Calls of active or inactive are those of the source.
How the values were obtained:
Ephrin type-A receptor 4 = Ephrin type-A receptor 4 (Mus musculus, UniProt Q03137); experiment: inhibitors of EphA4 binding to KYL peptide, primary screen, biochemical, colorimetric, mouse EphA4 (AID 689); type: functional
[1] = molecular target: T1, Sphingosine 1-phosphate receptor 2 (Homo sapiens, UniProt O95136); experiment: Dose Response Cell Based Assay for Agonists of the S1P2 Receptor of Purchased Analogues. [Related pubchem assays: 729, 843, 854, 736 ]; type: functional
T1 sequence (O95136 whole entry): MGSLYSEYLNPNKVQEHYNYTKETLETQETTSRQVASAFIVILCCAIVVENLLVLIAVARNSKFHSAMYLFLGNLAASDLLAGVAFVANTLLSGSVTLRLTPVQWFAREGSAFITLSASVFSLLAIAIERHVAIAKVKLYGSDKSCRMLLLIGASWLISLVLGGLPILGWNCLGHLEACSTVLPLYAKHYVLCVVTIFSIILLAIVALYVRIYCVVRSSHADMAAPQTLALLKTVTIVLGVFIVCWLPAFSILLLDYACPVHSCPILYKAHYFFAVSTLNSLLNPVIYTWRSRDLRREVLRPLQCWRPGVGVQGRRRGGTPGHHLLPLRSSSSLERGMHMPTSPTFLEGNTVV

Aminopeptidase N = molecular target: T2, Aminopeptidase N (Plasmodium falciparum FcB1/Columbia, UniProt O96935); experiment: P. falciparum M1AAP inhibitors, biochemical, fluorogenic H-Leu-NHMec substrate, 1536-well (AID 1445); set-up: species or system Plasmodium falciparum 3D7, 3D7
T2 sequence (O96935 whole entry): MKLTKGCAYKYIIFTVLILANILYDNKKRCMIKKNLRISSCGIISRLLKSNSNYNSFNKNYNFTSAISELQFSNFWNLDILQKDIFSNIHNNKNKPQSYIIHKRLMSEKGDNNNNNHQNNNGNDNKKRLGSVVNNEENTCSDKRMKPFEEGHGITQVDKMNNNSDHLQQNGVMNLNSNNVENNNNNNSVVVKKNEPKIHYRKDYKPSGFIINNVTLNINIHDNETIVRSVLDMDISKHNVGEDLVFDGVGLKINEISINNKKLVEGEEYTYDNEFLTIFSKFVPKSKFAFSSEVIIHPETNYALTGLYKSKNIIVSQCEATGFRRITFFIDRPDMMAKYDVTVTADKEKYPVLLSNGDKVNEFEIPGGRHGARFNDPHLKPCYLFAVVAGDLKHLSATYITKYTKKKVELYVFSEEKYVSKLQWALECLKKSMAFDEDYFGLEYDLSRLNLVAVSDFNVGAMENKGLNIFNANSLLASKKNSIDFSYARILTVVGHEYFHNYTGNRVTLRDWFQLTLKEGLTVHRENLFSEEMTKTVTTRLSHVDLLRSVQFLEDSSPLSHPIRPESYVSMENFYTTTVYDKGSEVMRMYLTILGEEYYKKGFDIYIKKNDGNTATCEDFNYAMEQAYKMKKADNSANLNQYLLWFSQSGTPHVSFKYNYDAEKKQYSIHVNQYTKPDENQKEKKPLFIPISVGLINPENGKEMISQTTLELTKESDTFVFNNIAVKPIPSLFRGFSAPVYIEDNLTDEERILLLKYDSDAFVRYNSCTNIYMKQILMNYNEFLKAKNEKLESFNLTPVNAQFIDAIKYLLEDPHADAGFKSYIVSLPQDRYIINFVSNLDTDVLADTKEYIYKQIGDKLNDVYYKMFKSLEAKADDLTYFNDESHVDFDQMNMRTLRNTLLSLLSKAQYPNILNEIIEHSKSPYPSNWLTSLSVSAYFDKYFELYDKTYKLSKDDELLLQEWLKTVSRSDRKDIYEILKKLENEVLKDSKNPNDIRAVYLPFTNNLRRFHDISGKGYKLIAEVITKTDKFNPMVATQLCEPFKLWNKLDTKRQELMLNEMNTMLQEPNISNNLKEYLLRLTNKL

Aspartyl aminopeptidase = molecular target: T3, Aspartyl aminopeptidase (Plasmodium falciparum 3D7, UniProt Q8I2J3); experiment: Counterscreen for inhibitors of M1 and M17 aminopeptidases: QFRET-based biochemical high throughput dose response assay for inhibitors of the Plasmodium falciparum M18 Aspartyl Aminopeptidase (PFM18AAP). [Related PubChem assays: 1619 (Screening assay (M17LAP inhibitors).), 1445 (Screening assay (M1AAP inhibitors).)]
T3 sequence (Q8I2J3 whole entry): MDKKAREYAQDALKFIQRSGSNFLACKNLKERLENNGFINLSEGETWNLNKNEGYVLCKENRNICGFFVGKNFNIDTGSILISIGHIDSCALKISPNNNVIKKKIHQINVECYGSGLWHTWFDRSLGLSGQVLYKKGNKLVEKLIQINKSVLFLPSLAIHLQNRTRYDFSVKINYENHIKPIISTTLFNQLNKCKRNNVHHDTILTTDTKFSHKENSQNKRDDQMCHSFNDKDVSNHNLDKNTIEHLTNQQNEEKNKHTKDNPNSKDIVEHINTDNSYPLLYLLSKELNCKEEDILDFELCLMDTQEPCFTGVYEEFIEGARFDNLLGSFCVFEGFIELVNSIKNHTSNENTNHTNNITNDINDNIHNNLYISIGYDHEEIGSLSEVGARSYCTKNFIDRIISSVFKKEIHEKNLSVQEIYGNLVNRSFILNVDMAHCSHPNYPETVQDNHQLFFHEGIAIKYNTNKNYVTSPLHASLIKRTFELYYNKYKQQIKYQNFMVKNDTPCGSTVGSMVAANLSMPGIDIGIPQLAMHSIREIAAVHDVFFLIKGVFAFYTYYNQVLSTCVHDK

Procathepsin L = Procathepsin L (Homo sapiens, UniProt P07711); experiment: cathepsin L inhibitors, dose response, counter-screen for M1/M17 aminopeptidase inhibitor project, biochemical, QFRET, 1536-well (AID 2214)
Procathepsin L, sequence (P07711 whole entry): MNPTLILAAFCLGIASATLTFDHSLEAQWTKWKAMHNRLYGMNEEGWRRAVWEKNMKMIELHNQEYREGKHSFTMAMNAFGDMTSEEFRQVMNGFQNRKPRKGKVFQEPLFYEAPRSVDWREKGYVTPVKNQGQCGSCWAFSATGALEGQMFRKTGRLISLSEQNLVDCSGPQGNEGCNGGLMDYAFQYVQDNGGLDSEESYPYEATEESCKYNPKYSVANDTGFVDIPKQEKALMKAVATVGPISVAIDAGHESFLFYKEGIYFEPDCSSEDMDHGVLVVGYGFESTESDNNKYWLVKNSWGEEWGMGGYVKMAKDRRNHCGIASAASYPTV

[2] = molecular target: T1, Sphingosine 1-phosphate receptor 2; experiment: Dose Response Cell Based Assay for Antagonists of the S1P2 Receptor. [Related pubchem assays: 856, 736 ]; type: functional
[3] = test system: Streptococcus sp. 'group A'; experiment: growth inhibition of control SK(-) GAS strain, dose response, counter-screen for streptokinase expression inhibitor project, luminescence, kanamycin, BacTiterGlo, confirmation (AID 1900); type: functional, organism-based
Streptococcus = experiment: Group A Streptococcus viability loss, dose response, counter-screen for streptokinase expression inhibitor project, luminescence, BacTiterGlo (AID 1915); type: functional, organism-based;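 also: potency for reduction of bacterial viability or growth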
Cytochrome P450 3A4 = Cytochrome P450 3A4 (Homo sapiens, UniProt P08684);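 also: CYP3A4 tested as one member of a cytochrome P450 panel screen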
Cytochrome P450 3A4, sequence (P08684 whole entry): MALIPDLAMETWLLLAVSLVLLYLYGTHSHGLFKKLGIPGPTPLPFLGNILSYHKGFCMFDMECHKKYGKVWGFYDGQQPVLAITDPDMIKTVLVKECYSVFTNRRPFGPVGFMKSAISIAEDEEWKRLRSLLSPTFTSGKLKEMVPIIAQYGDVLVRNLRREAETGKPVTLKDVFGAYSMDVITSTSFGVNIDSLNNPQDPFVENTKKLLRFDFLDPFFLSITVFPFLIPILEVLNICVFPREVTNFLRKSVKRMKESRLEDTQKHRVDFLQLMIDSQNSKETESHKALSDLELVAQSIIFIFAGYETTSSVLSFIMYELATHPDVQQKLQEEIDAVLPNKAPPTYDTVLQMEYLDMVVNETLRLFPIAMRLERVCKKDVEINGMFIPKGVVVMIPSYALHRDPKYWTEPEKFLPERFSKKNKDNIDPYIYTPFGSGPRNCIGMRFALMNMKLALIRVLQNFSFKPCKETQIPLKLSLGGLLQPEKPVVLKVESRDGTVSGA

Streptokinase A = molecular target: T4, Streptokinase A (Streptococcus pyogenes serotype M1, UniProt P10520); experiment: S. pyogenes streptokinase expression inhibitors, potency, dose response, plasminogen activation absorbance, OD405 (AID 1914); type: functional, Streptococcus pyogenes M1 GAS;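 also: secreted streptokinase activity via plasminogen activation per viability signal from cell pellet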
T4 sequence (P10520 whole entry): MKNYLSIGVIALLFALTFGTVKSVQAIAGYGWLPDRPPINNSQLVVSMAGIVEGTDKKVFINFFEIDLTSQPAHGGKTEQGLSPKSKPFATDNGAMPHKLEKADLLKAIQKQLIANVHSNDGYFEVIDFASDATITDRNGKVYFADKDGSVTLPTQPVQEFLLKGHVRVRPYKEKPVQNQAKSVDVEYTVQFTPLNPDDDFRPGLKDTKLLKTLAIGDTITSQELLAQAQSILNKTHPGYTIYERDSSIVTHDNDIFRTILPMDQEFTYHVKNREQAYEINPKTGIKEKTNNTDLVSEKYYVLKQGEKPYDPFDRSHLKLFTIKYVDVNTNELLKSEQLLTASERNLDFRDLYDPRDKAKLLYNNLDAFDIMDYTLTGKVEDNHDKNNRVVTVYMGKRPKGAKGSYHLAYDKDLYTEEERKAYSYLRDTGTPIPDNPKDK

[4] = molecular target: T5, Voltage-gated N-type calcium channel alpha-1B subunit/Amyloid beta A4 precursor protein-binding family A member 1 (Homo sapiens, UniProt Q00975+Q02410); type: protein assay
T5 sequence (Q00975 whole entry): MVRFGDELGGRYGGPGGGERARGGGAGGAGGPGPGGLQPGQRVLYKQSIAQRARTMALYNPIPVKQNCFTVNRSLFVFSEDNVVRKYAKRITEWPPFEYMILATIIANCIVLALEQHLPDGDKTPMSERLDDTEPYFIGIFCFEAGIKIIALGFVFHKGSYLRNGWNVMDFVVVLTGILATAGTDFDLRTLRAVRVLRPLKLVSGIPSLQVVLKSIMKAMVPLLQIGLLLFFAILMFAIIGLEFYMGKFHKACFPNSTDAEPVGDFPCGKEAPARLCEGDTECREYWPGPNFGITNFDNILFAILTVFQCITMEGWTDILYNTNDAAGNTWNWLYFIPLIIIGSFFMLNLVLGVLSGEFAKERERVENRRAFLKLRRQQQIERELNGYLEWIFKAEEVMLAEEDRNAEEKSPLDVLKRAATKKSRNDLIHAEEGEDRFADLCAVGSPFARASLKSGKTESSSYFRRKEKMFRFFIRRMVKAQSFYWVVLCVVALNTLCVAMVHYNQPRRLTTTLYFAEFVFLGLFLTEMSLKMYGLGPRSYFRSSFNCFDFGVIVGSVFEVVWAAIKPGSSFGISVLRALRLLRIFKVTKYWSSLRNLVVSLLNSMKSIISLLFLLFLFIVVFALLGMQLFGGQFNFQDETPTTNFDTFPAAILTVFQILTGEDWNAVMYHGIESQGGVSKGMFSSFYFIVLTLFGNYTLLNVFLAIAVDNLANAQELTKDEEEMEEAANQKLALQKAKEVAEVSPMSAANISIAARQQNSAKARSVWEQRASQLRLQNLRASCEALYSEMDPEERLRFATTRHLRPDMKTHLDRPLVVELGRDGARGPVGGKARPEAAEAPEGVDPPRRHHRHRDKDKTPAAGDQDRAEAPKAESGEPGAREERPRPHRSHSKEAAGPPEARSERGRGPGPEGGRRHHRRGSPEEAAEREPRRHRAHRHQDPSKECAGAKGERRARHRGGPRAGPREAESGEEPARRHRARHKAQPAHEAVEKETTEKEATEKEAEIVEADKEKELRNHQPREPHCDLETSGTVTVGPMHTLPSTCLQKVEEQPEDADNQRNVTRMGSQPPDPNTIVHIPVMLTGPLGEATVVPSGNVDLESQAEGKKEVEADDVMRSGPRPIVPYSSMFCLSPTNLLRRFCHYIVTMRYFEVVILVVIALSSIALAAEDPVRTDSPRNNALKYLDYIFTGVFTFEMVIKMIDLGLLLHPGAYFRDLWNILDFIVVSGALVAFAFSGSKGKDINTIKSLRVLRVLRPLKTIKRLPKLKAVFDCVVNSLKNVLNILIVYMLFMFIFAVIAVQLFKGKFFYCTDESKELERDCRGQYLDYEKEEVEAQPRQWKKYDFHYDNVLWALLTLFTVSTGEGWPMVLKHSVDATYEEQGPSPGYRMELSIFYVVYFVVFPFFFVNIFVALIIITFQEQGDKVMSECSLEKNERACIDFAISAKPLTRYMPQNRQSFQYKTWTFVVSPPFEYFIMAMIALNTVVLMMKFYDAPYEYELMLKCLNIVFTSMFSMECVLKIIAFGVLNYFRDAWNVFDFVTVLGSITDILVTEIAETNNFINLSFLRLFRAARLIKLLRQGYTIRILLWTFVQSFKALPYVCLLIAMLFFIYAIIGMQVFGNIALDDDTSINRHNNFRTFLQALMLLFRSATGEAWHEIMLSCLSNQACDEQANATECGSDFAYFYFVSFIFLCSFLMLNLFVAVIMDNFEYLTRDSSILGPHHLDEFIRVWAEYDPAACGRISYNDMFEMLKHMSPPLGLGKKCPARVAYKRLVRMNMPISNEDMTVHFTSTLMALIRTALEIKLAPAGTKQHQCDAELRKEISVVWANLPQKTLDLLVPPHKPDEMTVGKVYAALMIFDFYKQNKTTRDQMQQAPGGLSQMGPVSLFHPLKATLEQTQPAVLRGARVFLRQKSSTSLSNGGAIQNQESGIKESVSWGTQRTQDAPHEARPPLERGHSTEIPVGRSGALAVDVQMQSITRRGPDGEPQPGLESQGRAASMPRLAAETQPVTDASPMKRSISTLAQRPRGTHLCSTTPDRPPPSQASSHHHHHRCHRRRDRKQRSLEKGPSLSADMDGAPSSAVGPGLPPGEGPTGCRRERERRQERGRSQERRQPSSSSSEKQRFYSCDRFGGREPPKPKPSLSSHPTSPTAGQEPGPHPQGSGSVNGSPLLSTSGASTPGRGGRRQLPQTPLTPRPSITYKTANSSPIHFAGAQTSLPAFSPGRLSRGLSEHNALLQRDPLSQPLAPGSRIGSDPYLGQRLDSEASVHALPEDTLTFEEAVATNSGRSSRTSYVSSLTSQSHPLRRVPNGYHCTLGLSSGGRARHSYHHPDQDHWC
T5 sequence (Q02410 whole entry): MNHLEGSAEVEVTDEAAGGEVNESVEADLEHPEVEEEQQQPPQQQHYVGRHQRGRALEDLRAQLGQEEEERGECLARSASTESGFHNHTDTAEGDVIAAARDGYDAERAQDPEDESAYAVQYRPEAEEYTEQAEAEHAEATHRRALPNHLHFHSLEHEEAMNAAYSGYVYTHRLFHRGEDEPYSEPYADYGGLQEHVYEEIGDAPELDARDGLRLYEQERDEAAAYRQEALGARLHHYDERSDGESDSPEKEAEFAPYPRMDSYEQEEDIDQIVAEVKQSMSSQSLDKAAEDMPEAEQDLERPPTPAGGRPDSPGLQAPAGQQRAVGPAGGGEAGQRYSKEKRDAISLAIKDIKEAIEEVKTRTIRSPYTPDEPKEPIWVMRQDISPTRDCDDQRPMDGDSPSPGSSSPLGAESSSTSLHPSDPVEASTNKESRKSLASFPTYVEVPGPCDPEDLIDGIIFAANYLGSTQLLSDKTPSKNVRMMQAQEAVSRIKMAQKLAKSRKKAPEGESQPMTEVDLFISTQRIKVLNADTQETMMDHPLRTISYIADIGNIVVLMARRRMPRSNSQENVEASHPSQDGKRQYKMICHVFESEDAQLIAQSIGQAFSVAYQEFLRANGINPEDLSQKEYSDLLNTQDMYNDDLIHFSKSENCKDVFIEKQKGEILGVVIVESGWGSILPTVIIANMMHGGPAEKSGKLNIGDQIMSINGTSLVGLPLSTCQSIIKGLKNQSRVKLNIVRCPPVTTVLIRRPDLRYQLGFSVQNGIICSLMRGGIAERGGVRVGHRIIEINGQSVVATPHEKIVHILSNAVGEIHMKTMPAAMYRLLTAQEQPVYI

[5] = molecular target: T5, Voltage-gated N-type calcium channel alpha-1B subunit/Amyloid beta A4 precursor protein-binding family A member 1; type: protein assay; remark: listed apart in the source
[6] = molecular target: T6, Mannose-6-phosphate isomerase (Homo sapiens, UniProt P34949); experiment: human PMI inhibitors, high substrate, primary screen, biochemical, fluorescence intensity, high mannose 6-phosphate (AID 1220)
T6 sequence (P34949 whole entry): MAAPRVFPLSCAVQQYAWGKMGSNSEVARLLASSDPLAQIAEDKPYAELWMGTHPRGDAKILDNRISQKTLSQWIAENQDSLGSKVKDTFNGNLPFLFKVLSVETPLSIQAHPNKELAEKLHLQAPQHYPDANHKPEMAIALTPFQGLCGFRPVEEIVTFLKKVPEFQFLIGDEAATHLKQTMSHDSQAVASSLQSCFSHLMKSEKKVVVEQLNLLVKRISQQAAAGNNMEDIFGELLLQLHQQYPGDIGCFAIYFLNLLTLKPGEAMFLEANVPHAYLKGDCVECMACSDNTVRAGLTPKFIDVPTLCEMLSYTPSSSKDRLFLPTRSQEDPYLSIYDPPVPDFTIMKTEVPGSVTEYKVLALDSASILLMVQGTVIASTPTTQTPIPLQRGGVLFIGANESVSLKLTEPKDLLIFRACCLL

[7] = molecular target: T6, Mannose-6-phosphate isomerase; experiment: inhibitors of human PMI, primary screen, biochemical, fluorescence intensity, coupled assay (AID 1209)
[8] = M. tuberculosis growth inhibition, HTS (AID 449762); type: functional

Cc1occc1-c1nnc(SCC(=O)Nc2ccccc2-c2ccccc2)n1C
IC50 (Ephrin type-A receptor 4): > 100 µM (not active)

Cc1cc(C(=O)O)c(C)n1Cc1ccccc1
EC50 [1]: > 30 µM (not active)

O=C(NCc1cccc(F)c1)C1CCN(S(=O)(=O)Cc2ccccc2)CC1
IC50 (Aminopeptidase N): 1.71 µM (active)
IC50 (Aspartyl aminopeptidase): > 73.5 µM (not active)
IC50 (Procathepsin L): > 59.6 µM (not active)

Cc1nn(-c2ccccc2)c2c1C(c1ccc(O)c(O)c1)N1C(=N2)C(Nc2ccccc2)=Nc2ccccc21 (stereo not given)
IC50 [2]: 4.68 µM (active)
EC50 [3]: 0.772 µM (active)
EC50 (Streptococcus): 5.88 µM (active)
AC50 (Cytochrome P450 3A4): 14.1 µM (inconclusive)
EC50 (Streptokinase A): 1.53 µM (active)

CCN1C(=O)c2cccc3cccc1c23
IC50 [4]: 20.5 µM (active)
IC50 [5]: > 50 µM (inactive)
IC50 [6]: 33.9 µM (active)
IC50 [7]: 32 µM (active)

O=C(N/N=C/c1c(F)c(F)c(F)c(F)c1F)c1cccc(S(=O)(=O)N2CCOCC2)c1
IC50 [8]: > 100 µM (active)

Reference: ChEMBL document CHEMBL1201862, “PubChem BioAssay data set” (2004)
